Laboratory results taken from paper PMC9127750, “Structure-based design of CDC42 effector interaction inhibitors for the treatment of cancer” (Cell reports, 2022).
“And” between values parts separate entries of the source, which are not always exact repeats. Identical values can stand only once.

Test system: WM3248 melanoma cells, 486 antibodies
Assay: Reverse phase protein arrays (RPPA)
Type: cell-based, Human
Details: 20 uM, single replicates
Text: Pellets were snap frozen in liquid nitrogen and shipped to MD Anderson Cancer Center core RPPA facility for RPPA analysis (Table S5). Three biological replicates for each sample were generated.
Nomenclatures on the RPPA heatmaps: name_of_antibody.species_of_antibody.status_of_antibody. V - antibody validated; C - validation of antibody in progress; Q - antibody nonspecific; E – under evaluation; antibodies raised in M - mouse, G - goat, R - rabbit, or T - rat.

CN(C)c1cccc(Nc2cc(-c3ccccc3)nc(C3CCNCC3)n2)c1 [ARN22089, N1,N1-dimethyl-N3-(6-phenyl-2-(piperidin-4-yl)pyrimidin-4-yl)benzene-1,3-diamine]
RPPA PYGB.R.V: 1.097 and 1.103
RPPA PYGM.M.C: 0.934 and 0.932 and 1.083
RPPA Patched.R.C: 0.965 and 1.140 and 1.132
RPPA Paxillin.R.C: 0.641 and 0.823 and 1.018
RPPA Pdcd4.R.C: 0.925 and 0.993 and 1.052
RPPA Porin.M.V: 1.104 and 0.957
RPPA Puma.R.C: 0.983 and 0.942 and 1.107
RPPA Pyk2_pY402.R.C: 0.954 and 1.153 and 1.099
RPPA RBM15.R.V: 1.017 and 0.937 and 1.032
RPPA RIP3.R.C: 0.931 and 0.981
RPPA RIP.R.C: 0.915 and 1.063
RPPA RPA32.R.V: 1.148 and 1.033 and 1.052
RPPA RPA32_pS4_S8.R.C: 2.002 and 1.599 and 0.993
RPPA RRM1.R.C: 0.824 and 0.941
RPPA RRM2.R.C: 0.754 and 0.881 and 1.132
RPPA RSK1.R.V: 0.828 and 0.819
RPPA RSK.R.C: 1.012 and 0.889 and 1.017
RPPA Rab11.R.C: 1.004 and 1.130
RPPA Rab25.R.V: 0.958 and 1.084
RPPA Rad17_pS645.R.V: 0.998 and 1.234 and 0.987
RPPA Rad23A.R.C: 0.881 and 0.793 and 1.163
RPPA Rad50.R.V: 1.028
RPPA Rad51.R.C: 0.897 and 0.995 and 0.927
RPPA Raptor.R.V: 0.847 and 1.006 and 1.049
RPPA Rb.M.Q: 1.078 and 0.962 and 0.891
RPPA Rb_pS807_S811.R.V: 0.920 and 0.719 and 1.081
RPPA Rheb.M.C: 1.252 and 1.239
RPPA Rictor.R.C: 0.967
RPPA Rictor_pT1135.R.V: 1.012 and 1.102 and 1.115
RPPA S6.M.V: 1.262 and 0.956 and 0.729
RPPA S6_pS235_S236.R.V: 0.203 and 0.249 and 0.565
RPPA S6_pS240_S244.R.V: 0.207 and 0.313 and 0.749
RPPA SCD.M.V: 1.014 and 0.906 and 0.962
RPPA SDHA.R.V: 1.002 and 1.200
RPPA SF2.R.V: 1.008 and 0.980
RPPA SFRP1.R.V: 1.055 and 0.981 and 0.922
RPPA SGK1.R.V: 0.787 and 0.759 and 0.980
RPPA SGK3.R.V: 1.047 and 1.079 and 0.942
RPPA SHP2.R.V: 1.046 and 1.001 and 0.967
RPPA SHP.2_pY542.R.C: 1.101
RPPA SIRPαR.V: 1.429 and 0.758 and 0.756
RPPA SLC1A5.R.C: 1.116 and 0.885 and 1.238
RPPA SOD1.M.V: 0.930 and 1.026 and 0.944
RPPA SOD2.R.V: 1.210 and 1.153 and 0.970
RPPA SOX7.R.V: 1.129 and 1.097 and 1.010
RPPA STING.R.V: 1.022 and 0.890 and 0.979
RPPA Shc_pY317.R.C: 0.878 and 1.001 and 1.156
RPPA Slfn11.G.C: 1.081 and 0.905 and 0.999
RPPA Smac.M.Q: 1.032 and 0.944 and 0.954
RPPA Smad1.R.V: 0.952 and 1.150 and 1.141
RPPA Smad3.R.V: 1.122 and 1.116
RPPA Smad4.R.V: 1.439 and 1.061 and 0.837
RPPA Snail.M.Q: 0.766 and 0.784 and 0.712
RPPA Sox2.R.V: 1.214 and 1.389
RPPA Sox17.R.V: 0.937 and 0.923
RPPA Src.M.V: 0.956 and 1.011 and 0.918
RPPA Src_pY416.R.V: 0.994 and 1.111 and 0.997
RPPA Src_pY527.R.V: 1.022 and 1.387 and 1.151
RPPA Stat1_pY701.R.V: 1.097 and 1.029 and 0.986
RPPA Stat3.R.C: 0.851 and 0.986 and 1.101
RPPA Stat3_pY705.R.C: 1.728 and 1.194 and 0.922
RPPA Stat5a.R.V: 0.903 and 1.373 and 1.278
RPPA Stathmin.1.R.V: 0.916 and 0.858 and 0.997
RPPA Syk.M.V: 0.934 and 1.057 and 0.933
RPPA Synaptophysin.R.C: 1.153 and 0.998 and 0.965
RPPA TAZ.R.V: 0.631 and 0.534 and 0.991
RPPA TEAD.R.C: 0.716 and 1.191
RPPA TFAM.R.V: 0.999 and 0.944 and 0.992
RPPA TFRC.R.V: 0.895 and 0.844 and 1.062
RPPA TIGAR.R.V: 1.012 and 1.022 and 1.077
RPPA TRAP1.M.V: 0.979 and 0.864 and 0.990
RPPA TRIM24.R.C: 1.117 and 0.958
RPPA TRIM25.R.C: 0.754 and 0.868 and 1.058
RPPA TRIP13.R.V: 1.019 and 0.950 and 0.966
RPPA Tau.M.C: 1.147 and 1.195 and 0.925
RPPA Transglutaminase.M.V: 0.881 and 1.342 and 1.747
RPPA level HLA.DQA1.R.V: 1.062 and 1.076 and 0.920
RPPA level HLA.DR.DP.DQ.DX.R.C: 1.376 and 1.011 and 0.963
RPPA level HMHA1.R.V: 1.204
RPPA level HNRNPK.R.V: 1.033 and 1.100
RPPA level HSP27.M.C: 0.818 and 0.879 and 0.896
RPPA level HSP27_pS82.R.V: 0.857 and 1.102 and 1.157
